Laboratory results: ChEMBL document CHEMBL3763140, “Discovery of 5-aryl-1,3-dihydro-2H-imidazo[4,5-b]pyridin-2-ones as positive allosteric modulators of metabotropic glutamate subtype-2 (mGlu2) receptors with efficacy in a preclinical model of psychosis” (Bioorg Med Chem Lett, 2016)
Converted amounts (≈) assume the structure as drawn.

Key:
physchem = settings: buffer, pH 7
[1] = Total clearance in iv dosed Wistar Hannover rat administered as single dose measured up to 24 hrs; type: ADME, organism-based; settings: in vivo
[2] = Half life in iv dosed Wistar Hannover rat administered as single dose measured up to 24 hrs; type: ADME, organism-based; settings: in vivo
Rattus norvegicus = assay: Intrinsic clearance in iv dosed Wistar Hannover rat administered as single dose measured up to 24 hrs; type: ADME, organism-based; settings: in vivo
[3] = Oral bioavailability in Wistar Hannover rat at 10 mg/kg administered as single dose measured up to 24 hrs; type: ADME, organism-based; settings: in vivo
[4] = Total plasma concentration in PCP stimulated Sprague-Dawley rat hyperlocomotion model at 10 mg/kg, po after 2 hrs; type: ADME, organism-based
[5] = Total plasma concentration in PCP stimulated Sprague-Dawley rat hyperlocomotion model at 30 mg/kg, po after 2 hrs; type: ADME, organism-based
[6] = Total plasma concentration in PCP stimulated Sprague-Dawley rat hyperlocomotion model at 100 mg/kg, po after 2 hrs; type: ADME, organism-based
[7] = Total plasma concentration in MK801 stimulated Sprague-Dawley rat hyperlocomotion model at 10 mg/kg, po after 2 hrs; type: ADME, organism-based
[8] = Total plasma concentration in MK801 stimulated Sprague-Dawley rat hyperlocomotion model at 30 mg/kg, po after 2 hrs; type: ADME, organism-based
[9] = Total plasma concentration in MK801 stimulated Sprague-Dawley rat hyperlocomotion model at 100 mg/kg, po after 2 hrs; type: ADME, organism-based
Plasma [10] = assay: Unbound plasma concentration in PCP stimulated Sprague-Dawley rat hyperlocomotion model at 10 mg/kg, po after 2 hrs; type: ADME, organism-based; settings: in vivo
Plasma [11] = assay: Unbound plasma concentration in PCP stimulated Sprague-Dawley rat hyperlocomotion model at 30 mg/kg, po after 2 hrs; type: ADME, organism-based; settings: in vivo
Plasma [12] = assay: Unbound plasma concentration in PCP stimulated Sprague-Dawley rat hyperlocomotion model at 100 mg/kg, po after 2 hrs; type: ADME, organism-based; settings: in vivo
Plasma [13] = assay: Unbound plasma concentration in MK801 stimulated Sprague-Dawley rat hyperlocomotion model at 10 mg/kg, po after 2 hrs; type: ADME, organism-based; settings: in vivo
Plasma [14] = assay: Unbound plasma concentration in MK801 stimulated Sprague-Dawley rat hyperlocomotion model at 30 mg/kg, po after 2 hrs; type: ADME, organism-based; settings: in vivo
Plasma [15] = assay: Unbound plasma concentration in MK801 stimulated Sprague-Dawley rat hyperlocomotion model at 100 mg/kg, po after 2 hrs; type: ADME, organism-based; settings: in vivo
Cerebrospinal fluid [16] = assay: Drug uptake in cerebro spinal fluid of PCP stimulated Sprague-Dawley rat hyperlocomotion model at 10 mg/kg, po; type: ADME, organism-based; settings: in vivo, read-out: Drug uptake
Cerebrospinal fluid [17] = assay: Drug uptake in cerebro spinal fluid of PCP stimulated Sprague-Dawley rat hyperlocomotion model at 30 mg/kg, po; type: ADME, organism-based; settings: in vivo, read-out: Drug uptake
Cerebrospinal fluid [18] = assay: Drug uptake in cerebro spinal fluid of PCP stimulated Sprague-Dawley rat hyperlocomotion model at 100 mg/kg, po; type: ADME, organism-based; settings: in vivo, read-out: Drug uptake
Cerebrospinal fluid [19] = assay: Drug uptake in cerebro spinal fluid of MK801 stimulated Sprague-Dawley rat hyperlocomotion model at 10 mg/kg, po; type: ADME, organism-based; settings: in vivo, read-out: Drug uptake
Cerebrospinal fluid [20] = assay: Drug uptake in cerebro spinal fluid of MK801 stimulated Sprague-Dawley rat hyperlocomotion model at 30 mg/kg, po; type: ADME, organism-based; settings: in vivo, read-out: Drug uptake
Cerebrospinal fluid [21] = assay: Drug uptake in cerebro spinal fluid of MK801 stimulated Sprague-Dawley rat hyperlocomotion model at 100 mg/kg, po; type: ADME, organism-based; settings: in vivo, read-out: Drug uptake
MDR1a (P-glycoprotein) = assay: Apparent permeability across pig LLC-PK cells expressing human/rat MDR1a; type: ADME, cell-based, Sus scrofa; settings: LLC-PK1
in vivo = settings: Wistar Hannover, rat, 10 mg/kg

## Cn1c(=O)n(CC(C)(C)C)c2ccc(-c3ccc(S(C)(=O)=O)cc3)nc21
physchem
  solubility: 7 µM (≈ 2.61 µg/mL)

## Cc1ccc(C(C)(C)O)cc1-c1ccc2c(n1)n(C)c(=O)n2CC(C)(C)C
[1]
  clearance: 42 mL/min/kg
[2]
  half-life: 58.8 min
Rattus norvegicus
  CL: 2800 mL/min/kg
[3]
  bioavailability: 47%
[4]
  concentration at 2 h: 1800 nM
[5]
  concentration at 2 h: 8500 nM
[6]
  concentration at 2 h: 25000 nM
[7]
  concentration at 2 h: 1400 nM
[8]
  concentration at 2 h: 6700 nM
[9]
  concentration at 2 h: 22000 nM
Plasma [10]
  Cp(f): 54000 nM
Plasma [11]
  Cp(f): 255000 nM
Plasma [12]
  Cp(f): 750000 nM
Plasma [13]
  Cp(f): 42000 nM
Plasma [14]
  Cp(f): 201000 nM
Plasma [15]
  Cp(f): 660000 nM
Cerebrospinal fluid [16]
  concentration: 26 nM
Cerebrospinal fluid [17]
  concentration: 399 nM
Cerebrospinal fluid [18]
  concentration: 906 nM
Cerebrospinal fluid [19]
  concentration: 21 nM
Cerebrospinal fluid [20]
  concentration: 211 nM
Cerebrospinal fluid [21]
  concentration: 711 nM
MDR1a (P-glycoprotein)
  Papp: 31 ×10⁻⁶ cm/s
In vivo
  Cmax at 24 h: 1500 nM
physchem
  solubility: 147 µM (≈ 54 µg/mL)
